Assay: compatibility with pesticides, modified ASTM E1518-05 (2012) tank mixture test
Type: physicochemical
Settings: admixture with the zinc-containing adjuvant, after 72 hours
Experimental: The zinc-containing adjuvant compositions of the present disclosure were tested for compatibility with pesticides using a modified approach from ASTM E1518-05 (2012), Standard Practice for Evaluation of Physical Compatibility of Pesticides in Aqueous Tank Mixtures by the Dynamic Shaker Method, ASTM International, West Conshohocken, P A, 2012. The pesticides tested included: glyphosate including in its various forms including Roundup®) PowerMax®, Durango®, Cornerstone® 5 plus, Touchdown Total®, Enlist Duo™ (containing glyphosate and 2,4-D) and MON 76382; 2,4-D; Sterling® Blue; Basagran®; Enginia™.
Materials and Methods: The apparatuses used in compatibility testing included: 1. a graduated cylinder, 120 mL; 2. transfer pipets; 3. balance, +0.01 g; 4. a sieve, U.S. standard, 50 mesh (300 μm), 3 inches in diameter; and 5. a flashlight. […] Synthetic water was made according to CIPAC handbook F section MT18.
The final disposition of the compatibility test was on or around 100 mL, and the ratios needed to bring an application of 10 gallons per acre to 100 mL per acre were calculated. 70 percent of the water needed for the compatibility test was added to the cylinder at room temperature. The remaining components were added for the jar test according to WALES and DALES unless otherwise specified by the product label. Applications rates were used from the product label. […]

For `O=C(O)COc1ccc(Cl)cc1Cl` [2,4-D, 2,4-Dichlorophenoxyacetic acid], the compatibility observation was “same results as the 24 hour testing”.

From patent US20240343658A1, “MICRONUTRIENT COMPOSITIONS AND SYSTEMS AND METHODS OF USING SAME” (Winfield Solutions, LLC, priority 2016, published 2024)
